Experiments:
AMPA receptor GluA1 = molecular target: T1, AMPA receptor GluA1 (Homo sapiens, UniProt P42261); assay: Two-electrode voltage clamp, homomeric GluA1 AMPA receptor expressed in Xenopus oocytes; format: cell-based; settings: glutamate 100 µM
T1 construct: expressed in transfected cells; host or cells: Xenopus laevis oocytes injected with cRNA
Description: The AMPA receptor (flip isoform) cDNAs inserted in a SP6 polymerase expression vector (pSP6T) were a generous gift from Prof. Ralf Schoepfer (NPP, UCL). RNA was transcribed in vitro from MluI linearized transcripts using the SP6 Promega RiboMAX® RNA synthesis kit according to manufacturer’s protocols except for the addition of 0.75 mM capping nucleotide m^7G(5’)ppp(5’)G (Promega) and 1.6 mM GTP. cRNA concentrations and integrity were estimated by the intensity of fluorescence bands in RNA denaturating gels. AMPA receptor cRNAs were mixed in a nominal 1:1 ratio and ∼5 ng was injected per oocyte.
(§1) Xenopus laevis oocytes were purchased from the European Xenopus Resource Centre, University of Portsmouth. Stage V to VI oocytes were mechanically dissected and then subjected to gentle shaking for ∼30–50 min at room temperature with modified Barth’s solution (in mM): 88 NaCl, 1 KCl, 2.4 NaHCO3, 0.82 MgCl2, 0.77 CaCl2, 15 Tris-Cl, adjusted to pH 7.4 with NaOH (Sigma-Aldrich), supplemented with 50 IU/ml penicillin and 50 µg/ml streptomycin (Invitrogen) and 50 µg/ml tetracycline (Sigma-Aldrich) and 1% collagenase (type 1A). Healthy oocytes were manually defolliculated and the injections of cRNA for homomeric subunits alone (GluA1), or heteromeric mixtures of two subunits together (GluA1/GluA2 or GluA2/GluA3) were made using an automated Drummond Nanoinject II injector. The oocytes were then incubated at 17°C in modified Barth’s solution for at least 48 h before use in electrophysiological recordings.
Experiments were performed at room temperature (∼21–23°C). An oocyte was placed in a recording chamber (0.3–0.5 ml volume) and perfused with ND96 solution (96 mM NaCl, 2 mM KCl, 1.8 mM CaCI2, 1 mM MgCl2, 5 mM HEPES, with pH adjusted to 7.5). Current and voltage electrodes were filled with 300 mM KCl and made from thin-walled borosilicate glass (GC150TF-7.5, Harvard Apparatus) using a PC-10 electrode puller (Narashige Instruments) and had resistances of 0.5–2 MΩ. Oocytes were voltage-clamped to a holding potential of −50 mV or −60 mV using a Turbo TEC-03 amplifier (npi electronics). […]

AMPA receptor GluA2/3 = molecular target: T2, AMPA receptor GluA2/3 (Homo sapiens, UniProt P42262+P42263); assay: Two-electrode voltage clamp, AMPA receptor GluA2/3 expressed in Xenopus oocytes; format: cell-based; settings: for AMPA receptor currents: compound 1 mM, currents elicited by 100 µM L-glutamate, −50 mV
T2 construct: expressed in transfected cells; host or cells: Xenopus laevis oocytes injected with cRNA (1:1 mix)
T2 sequence (P42262 22-883 isoform P42262-2 limits assumed): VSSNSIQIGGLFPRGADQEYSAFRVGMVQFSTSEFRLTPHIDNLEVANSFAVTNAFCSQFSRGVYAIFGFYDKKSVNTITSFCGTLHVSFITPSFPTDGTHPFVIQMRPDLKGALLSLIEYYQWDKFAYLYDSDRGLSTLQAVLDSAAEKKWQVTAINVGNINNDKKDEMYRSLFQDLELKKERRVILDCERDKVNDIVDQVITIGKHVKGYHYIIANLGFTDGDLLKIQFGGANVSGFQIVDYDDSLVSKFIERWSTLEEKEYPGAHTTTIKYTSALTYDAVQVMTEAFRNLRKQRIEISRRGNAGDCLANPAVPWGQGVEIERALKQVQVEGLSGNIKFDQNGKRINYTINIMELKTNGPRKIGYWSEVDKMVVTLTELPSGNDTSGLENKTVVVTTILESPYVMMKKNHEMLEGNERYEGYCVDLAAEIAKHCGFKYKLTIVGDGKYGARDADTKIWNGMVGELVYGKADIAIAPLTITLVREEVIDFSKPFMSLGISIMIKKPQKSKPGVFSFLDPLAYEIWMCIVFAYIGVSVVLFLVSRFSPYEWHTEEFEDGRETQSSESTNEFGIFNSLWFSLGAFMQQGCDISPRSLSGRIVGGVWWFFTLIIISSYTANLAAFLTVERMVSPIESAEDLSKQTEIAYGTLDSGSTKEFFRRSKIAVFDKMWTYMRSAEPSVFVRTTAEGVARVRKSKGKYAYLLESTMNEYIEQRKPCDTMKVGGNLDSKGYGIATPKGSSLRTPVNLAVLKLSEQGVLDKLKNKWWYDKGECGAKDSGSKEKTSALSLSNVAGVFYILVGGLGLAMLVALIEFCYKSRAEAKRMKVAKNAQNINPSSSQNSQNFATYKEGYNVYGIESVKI
T2 sequence (P42263 29-894 isoform P42263-2 limits assumed): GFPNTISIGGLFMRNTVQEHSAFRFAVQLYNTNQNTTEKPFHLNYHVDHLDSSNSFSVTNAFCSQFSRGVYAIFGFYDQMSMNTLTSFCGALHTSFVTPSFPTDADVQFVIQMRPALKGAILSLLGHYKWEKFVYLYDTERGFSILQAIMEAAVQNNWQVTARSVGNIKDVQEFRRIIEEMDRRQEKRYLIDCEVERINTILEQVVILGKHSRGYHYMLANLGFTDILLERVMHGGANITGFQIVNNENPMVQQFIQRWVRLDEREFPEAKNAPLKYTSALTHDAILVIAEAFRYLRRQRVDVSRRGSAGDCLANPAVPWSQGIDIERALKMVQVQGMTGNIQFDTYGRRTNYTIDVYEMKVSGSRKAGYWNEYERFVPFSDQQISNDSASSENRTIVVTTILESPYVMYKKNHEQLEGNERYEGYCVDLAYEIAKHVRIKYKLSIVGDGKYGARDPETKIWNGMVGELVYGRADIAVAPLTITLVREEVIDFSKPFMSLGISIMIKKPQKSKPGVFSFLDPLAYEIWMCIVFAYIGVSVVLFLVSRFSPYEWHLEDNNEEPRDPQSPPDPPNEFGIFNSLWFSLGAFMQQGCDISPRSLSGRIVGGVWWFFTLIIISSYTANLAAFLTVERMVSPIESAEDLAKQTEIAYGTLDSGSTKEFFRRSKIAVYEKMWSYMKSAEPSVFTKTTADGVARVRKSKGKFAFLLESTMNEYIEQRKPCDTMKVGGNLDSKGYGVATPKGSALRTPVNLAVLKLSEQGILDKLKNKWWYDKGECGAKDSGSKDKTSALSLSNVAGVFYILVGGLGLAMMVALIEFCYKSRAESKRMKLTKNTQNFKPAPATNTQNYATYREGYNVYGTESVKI
Description: The AMPA receptor (flip isoform) cDNAs inserted in a SP6 polymerase expression vector (pSP6T) were a generous gift from Prof. Ralf Schoepfer (NPP, UCL). […] AMPA receptor cRNAs were mixed in a nominal 1:1 ratio and ∼5 ng was injected per oocyte.
as §1
Experiments were performed at room temperature (∼21–23°C). […] Current and voltage electrodes were filled with 300 mM KCl and made from thin-walled borosilicate glass (GC150TF-7.5, Harvard Apparatus) using a PC-10 electrode puller (Narashige Instruments) and had resistances of 0.5–2 MΩ. […] Compounds were dissolved in distilled water or DMSO and dissolved in bathing solution to achieve their final concentrations during experiments, and were applied under gravity flow during the experiment by using a multi-valve perfusion system (VC3-8C, ALA Scientific Instruments). The bath solutions were perfused at a rate of 10 ml/min. […] Data acquisition was performed using the Windows PC-based program, WinEDR v3.0.6 (John Dempster, University of Strathclyde, UK).
Statistical analysis was performed using ANOVA with Tukey post hoc test, paired t-test or unpaired t-test.

[1] = system: epileptiform activity (burst discharges) in hippocampal slices induced by low-Mg2+; set-up: method as in Chang et al., 2012, 2013; settings: 1 mM; ref Chang et al., 2012, 2013; cited from earlier work
[2] = system: epileptiform activity (burst discharges) in hippocampal slices induced by pentylenetetrazol; set-up: method as in Chang et al., 2012, 2013; settings: 1 mM; ref Chang et al., 2012, 2013; cited from earlier work
[3] = system: epileptiform activity (burst discharges) in hippocampal slices induced by pentylenetetrazol; assay: In vitro seizure model, pentylenetetrazol-induced epileptiform activity in hippocampal slices; format: cell-based, rat; settings: pentylenetetrazol 2 mM, K+ 6 mM
Description: (§2) Male Sprague-Dawley rats (postnatal Days 19–30) were sacrificed using an overdose of isoflurane or pentobarbitone (500 mg/kg). After decapitation the brain was rapidly removed, the hippocampus or entorhinal cortex-hippocampus slices was dissected from the brain and […] thick transverse slices were prepared on a VT1200S vibratome (Leica) or Vibratome (Vibratome® 1500 sectioning system, Intracell). The slicing was performed in ice-cold sucrose-based solution containing (in mM): 75 sucrose, 87 NaCl, 22 glucose, 2.5 KCl, 7 MgCl2, 1.25 NaH2PO4, 0.5 CaCl2 and 25 NaHCO3, pH 7.4, 315–330 mOsm equilibrated with 95% O2 plus 5% CO2. The slices were then stored in a continuously oxygenated humidified interface holding chamber containing oxygenated artificial CSF (in mM): 120 NaCl, 22 glucose, 2.5 KCl, 1.3 MgSO4, 1 NaH2PO4, 25 NaHCO3 and 2.5 CaCl2, pH 7.4 296 mOsm, where they recovered for at least 1 h before use.
(§3) During the experiment, slices were transferred from the interface chamber into a submerged recording chamber, designed to optimize wash-in and wash-out of drugs, and continuously perfused using gravity feed at 3–6 ml/min with prewarmed (36°C) oxygenated artificial CSF (95% O2, 5% CO2). Field potentials were recorded with a glass microelectrode (1–2 MΩ) filled with artificial CSF solution placed in stratum radiatum of CA1 and were filtered at 1 kHz and digitized at 2 kHz (using an npi EXT-02F extracellular amplifier recorded with WinEDR software). In the pentylenetetrazol model, the epileptiform (paroxysmal) activity was induced by application of pentylenetetrazol (2 mM) to the perfusate and [K^+] was increased (to 6 mM); in low-Mg^2+ model, the epileptiform activity was elicited by using Mg^2+-free artificial CSF. Once the frequency of the paroxysmal activity was stable for at least 10 min, compounds were applied to the perfusate for the following 40 min, and washed out for a remaining 20 min. The anticonvulsant effects were evaluated by measuring the change in the frequency of the discharges at minute intervals. The discharge frequency was then averaged every 5 min during the experiment and normalized to baseline. The compounds applied in this study included: 1% dimethyl sulphoxide (DMSO), acetone (10 mM, Sigma), (±)-sodium 3-hydroxybutyrate (BHB) (10 mM, Sigma), and decanoic acid (1 mM, Alfa Aesar Pty). Acetone and decanoic acids were prepared as 1000× stocks in DMSO, and BHB was prepared as 100× stock. Stocks were dissolved in artificial CSF to achieve their final concentrations during experiments, and where applicable, experiments included constant levels of DMSO.

AMPA receptor = system: AMPA receptor; set-up: method as in Arai, 2001; settings: 50 µM; ref Arai, 2001; cited from earlier work
[4] = system: epileptiform activity (burst discharges) in hippocampal slices induced by low-Mg2+; assay: In vitro seizure model, low-Mg2+ induced epileptiform activity in hippocampal slices; format: cell-based, rat; settings: 10 mM; low magnesium
Description: as §2
as §3, with “The discharge frequency was then averaged every 5 min during the experiment and normalized to baseline. The compounds applied in this study included: 1% dimethyl sulphoxide (DMSO), acetone (10 mM, Sigma), (±)-sodium 3-hydroxybutyrate (BHB) (10 mM, Sigma), and decanoic acid (1 mM, Alfa Aesar Pty). Acetone and decanoic acids were prepared as 1000× stocks in DMSO, and BHB was prepared as 100× stock. Stocks were dissolved in artificial CSF to achieve their final concentrations during experiments, and where applicable, experiments included constant levels of DMSO.” left out

[5] = humans; ref Rogawski and Hanada, 2013; cited from earlier work
field EPSP = system: field EPSP; set-up: method as in Ceolin et al., 2012; settings: at 30–50 nM; ref Ceolin et al., 2012; cited from earlier work

T1 sequence (P42261 19-906 isoform P42261-2 limits assumed): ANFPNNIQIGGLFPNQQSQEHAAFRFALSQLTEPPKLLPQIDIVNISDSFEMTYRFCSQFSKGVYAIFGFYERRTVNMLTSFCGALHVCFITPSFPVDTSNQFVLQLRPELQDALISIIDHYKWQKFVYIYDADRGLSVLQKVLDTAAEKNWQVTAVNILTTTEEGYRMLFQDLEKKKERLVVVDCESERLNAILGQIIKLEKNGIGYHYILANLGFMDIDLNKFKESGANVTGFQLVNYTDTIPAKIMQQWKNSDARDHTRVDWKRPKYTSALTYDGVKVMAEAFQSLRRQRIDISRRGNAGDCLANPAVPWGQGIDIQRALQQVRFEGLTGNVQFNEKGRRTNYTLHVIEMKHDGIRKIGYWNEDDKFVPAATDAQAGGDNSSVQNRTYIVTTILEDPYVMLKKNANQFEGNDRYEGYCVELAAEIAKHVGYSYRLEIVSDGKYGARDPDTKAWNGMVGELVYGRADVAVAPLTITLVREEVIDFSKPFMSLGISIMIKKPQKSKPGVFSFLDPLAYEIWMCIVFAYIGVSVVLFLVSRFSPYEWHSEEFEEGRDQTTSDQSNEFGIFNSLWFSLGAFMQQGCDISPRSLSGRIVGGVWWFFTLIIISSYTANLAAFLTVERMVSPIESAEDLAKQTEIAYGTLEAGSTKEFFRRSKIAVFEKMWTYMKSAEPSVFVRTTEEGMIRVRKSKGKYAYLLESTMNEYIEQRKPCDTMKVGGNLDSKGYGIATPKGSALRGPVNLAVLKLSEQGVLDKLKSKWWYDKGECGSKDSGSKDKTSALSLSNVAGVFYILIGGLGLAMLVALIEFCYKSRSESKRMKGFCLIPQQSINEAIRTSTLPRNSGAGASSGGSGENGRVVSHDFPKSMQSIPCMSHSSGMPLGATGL

## CCCCCCCC(=O)O [octanoic acid, reference compound]
AMPA receptor GluA1
  effect on homomeric GluA1 currents: no effect
AMPA receptor GluA2/3
  AMPA receptor currents: no effect

## CCCC(CCC)C(=O)O [valproic acid]
AMPA receptor GluA1
  effect on homomeric GluA1 currents: no effect
[1]
  effect on seizure activity: only modifies seizure activity
[2]
  effect on seizure activity: only modifies seizure activity
AMPA receptor GluA2/3
  AMPA receptor currents: no action

## CC1=NN=C(c2ccc(N)cc2)c2cc3c(cc2C1)OCO3 [GYKI 52466, reference compound]
[3]; 50 µM
  effect on epileptiform activity: completely blocked
AMPA receptor
  decrease in AMPA receptor responses: 60–70%

## CC(C)=O [acetone]
[3]; 10 mM
  effect on epileptiform activity: did not have any effect
[4]
  effect on epileptiform activity: did not have any effect

## CCCCC(C)CCC(=O)O (stereo not drawn) [4-methyloctanoic acid]
AMPA receptor GluA2/3; glutamate 100 µM, read-out: IC50, inhibition of glutamate-induced AMPA receptor current
  IC50: 840 ± 40 µM

## N#Cc1ccccc1-c1cc(-c2ccccn2)cn(-c2ccccc2)c1=O [perampanel]
[5]
  free concentrations observed to be efficacious: 30 to 50 nM
Field EPSP
  reduction in field EPSP slope: ~20%

## CC(O)CC(=O)O (racemic) [β-hydroxybutyrate, (±)-sodium 3-hydroxybutyrate]
[3]; 10 mM
  effect on epileptiform activity: did not have any effect
[4]
  effect on epileptiform activity: did not have any effect

Reference: publication PMC4805082, “Seizure control by decanoic acid through direct AMPA receptor inhibition” (Brain, 2015)
